In the supplement of paper PMC10627819:

Legend:
S. pneumoniae D39V [1] = test: fitness (endpoint OD595 vs no drug) (fraction); higher = more growth
Method in brief: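 Fitness was measured as bacterial growth in 384-well plates inoculated at OD595 0.01 (30 µl, or 55 µl for S. pneumoniae). Media were TSB, LB Lennox or CY, at 37 °C. OD595 was read every 30 min for 14 h and background-subtracted against the first reading. Fitness is OD595 at the transition into stationary phase divided by the robust mean of no-drug control wells, capped at 1.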

B. subtilis 168 = test: Bliss interaction score (quartile over a dose matrix) (fitness difference); higher = more antagonism (negative = synergy)
Method in brief: (§1)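 Each OD595 reading at entry into stationary phase was scaled to the robust mean of the untreated wells on its plate, with a ceiling of 1. These ratios define fitness, and single-drug fitness was inferred from combinations. The Bliss score compares observed fitness with the product-based expectation and is reported as quartiles across all replicate types, technical, biological and donor/recipient.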

S. aureus Newman = test: as above
Method in brief: as §1

S. pneumoniae D39V [2] = test: as above
Method in brief: as §1

S. aureus DSM 20231 = test: as above
Method in brief: as §1
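Wherever Bliss interaction score (quartile over a dose matrix) is given: first quartile when negative (synergy) and third quartile when positive (antagonism).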
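Wherever fitness (endpoint OD595 vs no drug) is given: OD595 on entry to stationary phase over no-drug wells; at most 1.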

COc1cccc2c1C(=O)c1c(O)c3c(c(O)c1C2=O)C[C@@](O)(C(=O)CO)C[C@@H]3O[C@H]1C[C@H](N)[C@H](O)[C@H](C)O1 [Doxorubicin] + CO[C@H]1/C=C/O[C@@]2(C)Oc3c(C)c(O)c4c(O)c(c(/C=N/N5CCN(C)CC5)c(O)c4c3C2=O)NC(=O)/C(C)=C\C=C\[C@H](C)[C@H](O)[C@@H](C)[C@@H](O)[C@@H](C)[C@H](OC(C)=O)[C@@H]1C [Rifampicin]
fitness, S. pneumoniae D39V [1]
Details	first compound 0.25 µg/mL	first compound 0.5 µg/mL	first compound 1 µg/mL
partner 0.025 µg/mL	0.985	0.991	0.866
partner 0.05 µg/mL	–	0.94	–
partner 0.1 µg/mL	0.323	0.397	0.318

S. pneumoniae D39V [1], partner 0.2 µg/mL, one replicate
Details	fitness
first compound 0.25 µg/mL	0
first compound 0.5 µg/mL	0
first compound 1 µg/mL	0

Details	Bliss interaction score
B. subtilis 168	0.0845
S. aureus DSM 20231	-0.0908
S. aureus Newman	-0.029
S. pneumoniae D39V [2]	-0.058

COc1cccc2c1C(=O)c1c(O)c3c(c(O)c1C2=O)C[C@@](O)(C(=O)CO)C[C@@H]3O[C@H]1C[C@H](N)[C@H](O)[C@H](C)O1 [Doxorubicin] + C[C@@H](O)[C@H]1C(=O)N2C(C(=O)O)=C(SCCNC=N)C[C@H]12 [Imipenem]
fitness, S. pneumoniae D39V [1]
Details	partner 0.005 µg/mL	partner 0.0065 µg/mL	partner 0.01 µg/mL	partner 0.013 µg/mL	partner 0.02 µg/mL	partner 0.026 µg/mL
first compound 0.25 µg/mL	0.954	0.913	0.958	0.836	0.949	0.831
first compound 0.5 µg/mL	0.981	0.858	0.958	0.844	0.971	0.842
first compound 1 µg/mL	0.909	0.858	0.877	0.894	0.872	0.789

Details	Bliss interaction score
B. subtilis 168	-0.197
S. aureus DSM 20231	-0.0485
S. aureus Newman	-0.0256
S. pneumoniae D39V [2]	0.0651

COc1cccc2c1C(=O)c1c(O)c3c(c(O)c1C2=O)C[C@@](O)(C(=O)CO)C[C@@H]3O[C@H]1C[C@H](N)[C@H](O)[C@H](C)O1 [Doxorubicin] + Clc1ccc(COC(Cn2ccnc2)c2ccc(Cl)cc2Cl)c(Cl)c1 [Miconazole]
fitness, S. pneumoniae D39V [1]
Details	partner 1.073 µg/mL	partner 1.25 µg/mL	partner 2.145 µg/mL	partner 2.5 µg/mL	partner 4.29 µg/mL	partner 5 µg/mL
first compound 0.25 µg/mL	0.953	0.921	0.921	0.949	0.646	0.947
first compound 0.5 µg/mL	0.967	0.967	0.978	0.966	0.848	0.983
first compound 1 µg/mL	0.961	0.845	0.914	0.901	0.791	0.921

Details	Bliss interaction score
B. subtilis 168	0.0755
S. aureus DSM 20231	-0.0766
S. aureus Newman	-0.074
S. pneumoniae D39V [2]	0.0804

COc1cccc2c1C(=O)c1c(O)c3c(c(O)c1C2=O)C[C@@](O)(C(=O)CO)C[C@@H]3O[C@H]1C[C@H](N)[C@H](O)[C@H](C)O1 [Doxorubicin] + O=C1CN(/N=C/c2ccc([N+](=O)[O-])o2)C(=O)N1 [Nitrofurantoin]
fitness, S. pneumoniae D39V [1]
Details	partner 1.285 µg/mL	partner 2 µg/mL	partner 2.57 µg/mL	partner 4 µg/mL	partner 8 µg/mL
first compound 0.25 µg/mL	0.935	0.918	0.91	0.857	0.465
first compound 0.5 µg/mL	0.925	0.946	0.94	0.795	0.436
first compound 1 µg/mL	0.825	0.814	0.809	0.721	0.405

S. pneumoniae D39V [1], partner 5.14 µg/mL, one replicate
Details	fitness
first compound 0.25 µg/mL	0.822
first compound 0.5 µg/mL	0.858
first compound 1 µg/mL	0.695

Details	Bliss interaction score
B. subtilis 168	-0.221
S. aureus DSM 20231	-0.0576
S. aureus Newman	-0.0388
S. pneumoniae D39V [2]	0.0747

C[C@H]1c2cccc(O)c2C(=O)C2=C(O)[C@]3(O)C(=O)C(C(N)=O)=C(O)[C@@H](N(C)C)[C@@H]3[C@@H](O)[C@@H]21 [Doxycycline] + C/C(=C\C(=O)OCCCCCCCCC(=O)O)C[C@@H]1OC[C@H](C[C@@H]2O[C@H]2[C@@H](C)[C@H](C)O)[C@@H](O)[C@H]1O [Pseudomonic acid]
fitness, S. pneumoniae D39V [1], one replicate
Details	partner 0.03 µg/mL	partner 0.06 µg/mL	partner 0.12 µg/mL
first compound 0.003875 µg/mL	0.973	0.887	0.585
first compound 0.00775 µg/mL	0.943	0.839	0.614

fitness, S. pneumoniae D39V [1]
Details	first compound 0.0155 µg/mL	first compound 0.031 µg/mL	first compound 0.062 µg/mL
partner 0.03 µg/mL	0.993	0.937	0.821
partner 0.06 µg/mL	0.878	0.845	0.857
partner 0.12 µg/mL	0.604	0.608	0.562

Details	Bliss interaction score
B. subtilis 168	-0.0363
S. aureus DSM 20231	-0.0104
S. aureus Newman	-0.0168
S. pneumoniae D39V [2]	0.0875

C[C@H]1c2cccc(O)c2C(=O)C2=C(O)[C@]3(O)C(=O)C(C(N)=O)=C(O)[C@@H](N(C)C)[C@@H]3[C@@H](O)[C@@H]21 [Doxycycline] + CN[C@H](CC(C)C)C(=O)N[C@H]1C(=O)N[C@@H](CC(N)=O)C(=O)N[C@H]2C(=O)N[C@H]3C(=O)N[C@H](C(=O)N[C@H](C(=O)O)c4cc(O)cc(O)c4-c4cc3ccc4O)[C@H](O)c3ccc(c(Cl)c3)Oc3cc2cc(c3O[C@@H]2O[C@H](CO)[C@@H](O)[C@H](O)[C@H]2O[C@H]2C[C@](C)(N)[C@H](O)[C@H](C)O2)Oc2ccc(cc2Cl)[C@H]1O [Vancomycin]
fitness, S. pneumoniae D39V [1], one replicate
Details	first compound 0.003875 µg/mL	first compound 0.00775 µg/mL	first compound 0.031 µg/mL	first compound 0.062 µg/mL
partner 0.125 µg/mL	0.882	0.989	–	–
partner 0.25 µg/mL	0.29	0.571	0.753	0.629
partner 0.5 µg/mL	0.0216	0.0253	0.128	0.0893

fitness, S. pneumoniae D39V [1]
Details	partner 0.03125 µg/mL	partner 0.0625 µg/mL	partner 0.125 µg/mL	partner 0.25 µg/mL	partner 0.5 µg/mL
first compound 0.0155 µg/mL	0.903	0.876	0.913	0.802	0.105
first compound 0.031 µg/mL	0.838	0.79	0.767	–	–
first compound 0.062 µg/mL	0.84	0.783	–	–	–

Details	Bliss interaction score
B. subtilis 168	0.0535
S. aureus DSM 20231	0.0785
S. aureus Newman	0.0371
S. pneumoniae D39V [2]	0.101

C[C@H]1c2cccc(O)c2C(=O)C2=C(O)[C@]3(O)C(=O)C(C(N)=O)=C(O)[C@@H](N(C)C)[C@@H]3[C@@H](O)[C@@H]21 [Doxycycline] + CO[C@H]1/C=C/O[C@@]2(C)Oc3c(C)c(O)c4c(O)c(c(/C=N/N5CCN(C)CC5)c(O)c4c3C2=O)NC(=O)/C(C)=C\C=C\[C@H](C)[C@H](O)[C@@H](C)[C@@H](O)[C@@H](C)[C@H](OC(C)=O)[C@@H]1C [Rifampicin]
S. pneumoniae D39V [1], one replicate
Details	fitness
first compound 0.003875 µg/mL, partner 0.05 µg/mL	0.802
first compound 0.003875 µg/mL, partner 0.1 µg/mL	0.36
first compound 0.003875 µg/mL, partner 0.2 µg/mL	0.109
first compound 0.00775 µg/mL, partner 0.05 µg/mL	0.864
first compound 0.00775 µg/mL, partner 0.1 µg/mL	0.494
first compound 0.00775 µg/mL, partner 0.2 µg/mL	0.207
first compound 0.0155 µg/mL, partner 0.025 µg/mL	0.912
first compound 0.031 µg/mL, partner 0.025 µg/mL	0.927
first compound 0.062 µg/mL, partner 0.025 µg/mL	0.825

fitness, S. pneumoniae D39V [1]
Details	first compound 0.0155 µg/mL	first compound 0.031 µg/mL	first compound 0.062 µg/mL
partner 0.05 µg/mL	0.863	0.861	–
partner 0.1 µg/mL	–	–	0.307
partner 0.2 µg/mL	0.199	0.113	0.0818

Details	Bliss interaction score
B. subtilis 168	-0.253
S. aureus DSM 20231	-0.0196
S. aureus Newman	-0.0119
S. pneumoniae D39V [2]	-0.0813

C[C@H]1c2cccc(O)c2C(=O)C2=C(O)[C@]3(O)C(=O)C(C(N)=O)=C(O)[C@@H](N(C)C)[C@@H]3[C@@H](O)[C@@H]21 [Doxycycline] + C[C@@H](O)[C@H]1C(=O)N2C(C(=O)O)=C(SCCNC=N)C[C@H]12 [Imipenem]
fitness, S. pneumoniae D39V [1], one replicate
Details	first compound 0.003875 µg/mL	first compound 0.00775 µg/mL	first compound 0.031 µg/mL	first compound 0.062 µg/mL
partner 0.005 µg/mL	≥ 1	0.998	0.87	0.739
partner 0.01 µg/mL	≥ 1	0.973	0.808	0.74
partner 0.02 µg/mL	≥ 1	0.993	0.834	0.706

fitness, S. pneumoniae D39V [1]
Details	partner 0.005 µg/mL	partner 0.0065 µg/mL	partner 0.01 µg/mL	partner 0.013 µg/mL	partner 0.02 µg/mL	partner 0.026 µg/mL
first compound 0.0155 µg/mL	0.989	0.886	0.931	0.845	0.928	0.746
first compound 0.031 µg/mL	–	0.825	–	0.826	–	0.789
first compound 0.062 µg/mL	–	0.753	–	0.78	–	0.759

Details	Bliss interaction score
B. subtilis 168	0.222
S. aureus DSM 20231	-0.0172
S. aureus Newman	0.0141
S. pneumoniae D39V [2]	-0.0283

C[C@H]1c2cccc(O)c2C(=O)C2=C(O)[C@]3(O)C(=O)C(C(N)=O)=C(O)[C@@H](N(C)C)[C@@H]3[C@@H](O)[C@@H]21 [Doxycycline] + Clc1ccc(COC(Cn2ccnc2)c2ccc(Cl)cc2Cl)c(Cl)c1 [Miconazole]
fitness, S. pneumoniae D39V [1], one replicate
Details	first compound 0.003875 µg/mL	first compound 0.00775 µg/mL	first compound 0.031 µg/mL	first compound 0.062 µg/mL
partner 1.25 µg/mL	0.936	0.934	0.852	0.731
partner 2.5 µg/mL	0.925	0.964	0.878	0.74
partner 5 µg/mL	0.954	0.96	0.854	0.689

fitness, S. pneumoniae D39V [1]
Details	partner 1.073 µg/mL	partner 1.25 µg/mL	partner 2.145 µg/mL	partner 2.5 µg/mL	partner 4.29 µg/mL	partner 5 µg/mL
first compound 0.0155 µg/mL	0.947	0.923	0.96	0.936	0.895	0.911
first compound 0.031 µg/mL	0.937	–	0.95	–	0.912	–
first compound 0.062 µg/mL	0.895	–	0.908	–	0.835	–

Details	Bliss interaction score
B. subtilis 168	0.0453
S. aureus DSM 20231	0.0575
S. aureus Newman	-0.0138
S. pneumoniae D39V [2]	0.0669
